Measured values as given in US11591323B2, “Muscarinic agonists as non-steroidal and non-opioid analgesics and methods of use thereof” (Barry University, priority 2019, dated 2023).

Legend:
Format in all cases: cell-based
M2 muscarinic receptor [1] = molecular target: T1, M2 muscarinic receptor (Homo sapiens, UniProt P08172); experiment: stimulation of cAMP, M2 CHO cells (M2Gs); parameters: host or cells: CHO cells, stably transfected; conditions: for RAi: Table 8, relative to carbachol; for Δlog(τ/KA): Table 8, to carbachol
T1 sequence (P08172 1-466): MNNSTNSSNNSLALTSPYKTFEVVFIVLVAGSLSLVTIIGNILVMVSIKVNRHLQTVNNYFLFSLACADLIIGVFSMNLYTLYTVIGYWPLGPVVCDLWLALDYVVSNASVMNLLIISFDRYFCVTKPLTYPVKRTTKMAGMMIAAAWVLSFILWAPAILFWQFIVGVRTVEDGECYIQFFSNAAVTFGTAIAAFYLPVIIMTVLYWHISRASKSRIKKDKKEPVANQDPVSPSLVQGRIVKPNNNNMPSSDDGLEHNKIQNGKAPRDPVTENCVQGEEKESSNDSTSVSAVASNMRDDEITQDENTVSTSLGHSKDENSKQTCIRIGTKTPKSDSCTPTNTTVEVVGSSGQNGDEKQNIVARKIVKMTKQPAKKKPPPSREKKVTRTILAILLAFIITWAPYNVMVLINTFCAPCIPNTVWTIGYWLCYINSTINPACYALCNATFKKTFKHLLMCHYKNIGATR
Method: (§1) To determine level of cAMP, cells in suspension were pre-incubated for 1 h with 0.4 μM [^3H]adenine, washed, and incubated for 10 min in the presence of isobutylmethylxanthine and 10 μM forskolin. […] Incubation was ended by addition of 0.2 ml of 2.5 M HCl to the samples. Samples were applied to alumina columns (1.5 g of alumina per column), washed with 2 ml ammonium acetate (pH=7.0) and eluted from columns with 4 ml ammonium acetate and measured by liquid scintillation spectrometry. […] The incubation was stopped by addition of 0.5 ml of chloroform methanol HCl mixture (2:1:0.1). After separation of water and organic phases, 0.6 ml of water phase was applied to Dowex columns (1.5 g of Dowex per column), washed by 20 ml of 60 mM ammonium formate/5 mM sodium borate buffer and eluted from columns with 4 ml of 1M ammonium formate/0.1 formic acid buffer and measured by liquid scintillation spectrometry.
(§2) Measurements of the production of cAMP and inositol phosphates: Levels of second messengers cAMP and inositol phosphates were determined in radiochemical chromatography assays as described previously. To determine level of cAMP, cells in suspension were pre-incubated for 1 h with 0.4 μM [^3H]adenine, washed, and incubated for 10 min in the presence of isobutylmethylxanthine and 10 μM forskolin. […] Incubation was ended by addition of 0.2 ml of 2.5 M HCl to the samples. Samples were applied to alumina columns (1.5 g of alumina per column), washed with 2 ml ammonium acetate (pH=7.0) and eluted from columns with 4 ml ammonium acetate and measured by liquid scintillation spectrometry. […] For this purpose, new CHO cell lines stably expressing promiscuous G15 G-protein and M2 or M4 receptor were generated by transfection with pCMV/hygro vector and hygromycin selection. To determine the rate of formation of inositol phosphates IPX, suspended cells were pre-incubated with 0.1 μM [^3H]myo-inositol for 60 min, washed, and incubated with 10 mM LiCl for 15 min. […] The incubation was stopped by addition of 0.5 ml of chloroform methanol HCl mixture (2:1:0.1). After separation of water and organic phases, 0.6 ml of water phase was applied to Dowex columns (1.5 g of Dowex per column), washed by 20 ml of 60 mM ammonium formate/5 mM sodium borate buffer and eluted from columns with 4 ml of 1M ammonium formate/0.1 formic acid buffer and measured by liquid scintillation spectrometry.
(§3) For bi-phasic response, curves were inhibitory and stimulatory phase were fitted separately. Operational Model of Functional Agonism
(§4) [formula] where y is functional response at concentration of tested compound x, EMAX is maximal response of the system, KA is equilibrium dissociation constant and nH is slope factor. Eq. 5 was fitted to data from functional experiments. Eq. 5 was fitted to data by the two-step procedure described earlier. […] In the second step, Eq. 5 with EMAX fixed to the value determined in the first step was fitted to individual experimental data sets. Relative Intrinsic Activity

M4 muscarinic receptor = molecular target: T2, M4 muscarinic receptor (Homo sapiens, UniProt P08173); experiment: accumulation of IPX, M4 CHO cells with promiscuous G15 G-protein (M4Gq+G15); parameters: expressed in transfected cells; pCMV/hygro vector, hygromycin selection; conditions: for E′MAX / τ / RAi / Δlog(τ/KA): M4 Gq + G15 (↑IPX); for E′MAX / τ: Table 8; for RAi: Table 8, relative to carbachol; for Δlog(τ/KA): Table 8, to carbachol; for accumulation of IPX: M4 co-transfected with G15, in words
T2 sequence (P08173 1-479): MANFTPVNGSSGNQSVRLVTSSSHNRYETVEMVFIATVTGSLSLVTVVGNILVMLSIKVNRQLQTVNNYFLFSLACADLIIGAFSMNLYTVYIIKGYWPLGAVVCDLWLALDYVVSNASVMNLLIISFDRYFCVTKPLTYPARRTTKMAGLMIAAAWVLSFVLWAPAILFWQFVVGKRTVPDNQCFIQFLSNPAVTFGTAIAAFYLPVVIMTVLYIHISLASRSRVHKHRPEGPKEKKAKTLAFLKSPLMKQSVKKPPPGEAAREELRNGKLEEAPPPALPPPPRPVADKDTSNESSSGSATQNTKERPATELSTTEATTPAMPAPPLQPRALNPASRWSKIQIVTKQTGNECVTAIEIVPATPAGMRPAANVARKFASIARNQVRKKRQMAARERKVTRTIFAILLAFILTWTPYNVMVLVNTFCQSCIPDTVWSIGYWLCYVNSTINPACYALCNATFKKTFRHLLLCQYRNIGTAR
Method: (§5) Since activation of phospholipase C (PLC) via M2 and M4 receptors is weak, cells were transferred with G15 G-protein to facilitate coupling.
as §1, §2, §3, §4
(§6) Muscarinic receptors are also able to stimulate non-preferential signalling pathways.

M2 muscarinic receptor [2] = molecular target: T1, M2 muscarinic receptor; experiment: accumulation of IPX, M2 CHO cells with promiscuous G15 G-protein (M2Gq+G15); parameters: expressed in transfected cells; host or cells: CHO cells, pCMV/hygro vector, hygromycin selection; conditions: for E′MAX / τ / RAi / Δlog(τ/KA): M2Gq ± G15 (↑IPX); for E′MAX / τ: Table 8; for RAi: Table 8, relative to carbachol; for Δlog(τ/KA): Table 8, to carbachol; for accumulation of IPX: M2 co-transfected with G15, in words
Method: as §5, §1, §2, §3, §4, §6

Row | SMILES | EC50 (M2 muscarinic receptor [1]) [nM] | Kd (M2 muscarinic receptor [1]) [nM] | E′MAX (M2 muscarinic receptor [1]; M2Gs (↑cAMP), Table 8) [fold increase] | τ (M2 muscarinic receptor [1]; M2Gs (↑cAMP), Table 8) | RAi (M2 muscarinic receptor [1]; M2Gs (↑cAMP)) | Δlog(τ/KA) (M2 muscarinic receptor [1]; M2Gs (↑cAMP)) | E′MAX (M4 muscarinic receptor) [fold over basal] | τ (M4 muscarinic receptor) | RAi (M4 muscarinic receptor) | Δlog(τ/KA) (M4 muscarinic receptor) | EC50 (M2 muscarinic receptor [2]) [nM] | Kd (M2 muscarinic receptor [2]) [nM] | E′MAX (M2 muscarinic receptor [2]) [fold over basal] | τ (M2 muscarinic receptor [2]) | RAi (M2 muscarinic receptor [2]) | Δlog(τ/KA) (M2 muscarinic receptor [2]) | accumulation of IPX (M4 muscarinic receptor) | accumulation of IPX (M2 muscarinic receptor [2])
1 | O=C1CCCN1CC#CCN1CCCC1 [oxotremorine, reference compound] | 1150 | 3980 | 3.1 ± 0.2 | 2.3 ± 0.2 | 2.65 ± 0.018 | −0.42 ± 0.04 | 4.0 ± 0.3 | 2.5 ± 0.2 | 3.50 ± 0.33 | −0.54 | 70.8 | 200 | 4.1 ± 0.3 | 1.9 ± 0.2 | 2.41 ± 0.22 | −0.38 ± 0.05 |  | 
2 | C[N+](C)(C)CCOC(N)=O [carbachol, reference compound] |  |  | 3.6 ± 0.2 |  |  | 0 | 4.5 ± 0.3 | 4.8 ± 0.5 |  | 0 |  |  | 4.9 ± 0.3 | 4.5 ± 0.5 |  | 0 | stimulated accumulation of IPX | stimulated accumulation of IPX
3 | C1=CCN(Cc2cccs2)CC1.Cl [Compound 6A, 1-[(thiophen-2-yl)methyl]-1,2,3,6-tetrahydropyridin-1-ium chloride] |  |  |  |  | 0 |  |  |  | 0 |  |  |  |  |  | 0 |  | did not stimulate IPX accumulation | did not stimulate IPX accumulation
4 | C[N+]1(Cc2cccs2)CC=CCC1.[I-] (stereo not drawn) [Compound 7A, 1-methyl-1-[(thiophen-2-yl)methyl]-1,2,3,6-tetrahydropyridin-1-ium iodide] |  |  |  |  | 0 |  |  |  | 0 |  |  |  |  |  | 0 |  | did not stimulate IPX accumulation | did not stimulate IPX accumulation
